The values that follow come from PMC8080662 (Scientific Reports, 2021).

The structures appear in SMILES notation. pIC50: −log10 of the molar value.

The target in one assay is PLK-1 (Caenorhabditis elegans, UniProt P34331). Kind of assay: in vitro radiometric kinase assay ([γ-32P]ATP, GST-LMN-1 head substrate). Format: biochemical.
For another assay, the target named is LET-23 (Caenorhabditis elegans, UniProt P24348). Nature of the assay: continuous enzyme-coupled kinase assay on lipid vesicles, percent inhibition. Type of assay: biochemical.
Sequence of LET-23 (P24348 866-1191): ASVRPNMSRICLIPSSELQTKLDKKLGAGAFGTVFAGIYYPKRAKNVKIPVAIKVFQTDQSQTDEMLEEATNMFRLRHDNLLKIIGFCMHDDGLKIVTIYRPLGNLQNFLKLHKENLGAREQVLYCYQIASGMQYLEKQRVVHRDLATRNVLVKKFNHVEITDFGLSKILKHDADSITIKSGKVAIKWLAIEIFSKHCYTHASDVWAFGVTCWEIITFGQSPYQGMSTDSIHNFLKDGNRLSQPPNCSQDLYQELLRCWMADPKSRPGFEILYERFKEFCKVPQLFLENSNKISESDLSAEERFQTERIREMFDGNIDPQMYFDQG

Sequence of PLK-1 (P34331 whole entry): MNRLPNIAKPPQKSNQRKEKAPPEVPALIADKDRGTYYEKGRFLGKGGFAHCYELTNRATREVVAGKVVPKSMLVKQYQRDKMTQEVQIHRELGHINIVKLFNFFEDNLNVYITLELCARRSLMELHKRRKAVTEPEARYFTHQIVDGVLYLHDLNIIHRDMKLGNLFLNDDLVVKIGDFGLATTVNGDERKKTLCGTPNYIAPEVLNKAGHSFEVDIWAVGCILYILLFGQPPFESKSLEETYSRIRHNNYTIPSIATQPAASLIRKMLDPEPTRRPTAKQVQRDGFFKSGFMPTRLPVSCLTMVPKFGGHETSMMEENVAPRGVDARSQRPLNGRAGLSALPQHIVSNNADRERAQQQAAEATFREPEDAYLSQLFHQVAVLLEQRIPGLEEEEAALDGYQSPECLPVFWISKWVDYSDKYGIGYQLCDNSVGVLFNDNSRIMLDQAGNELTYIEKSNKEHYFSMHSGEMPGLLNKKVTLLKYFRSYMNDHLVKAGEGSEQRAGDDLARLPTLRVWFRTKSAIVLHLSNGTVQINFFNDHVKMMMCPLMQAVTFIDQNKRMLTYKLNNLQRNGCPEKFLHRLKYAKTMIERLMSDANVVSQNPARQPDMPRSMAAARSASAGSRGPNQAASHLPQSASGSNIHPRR

Consider `C[C@@H](Oc1cc(-n2cnc3cc(-c4ccncc4)ccc32)sc1C(N)=O)c1ccccc1Cl` [GSK479719A], for which the pIC50 at PLK-1 is 7.41. The same measure, in the same setting: the same measure for `C[C@@H](Oc1cc(-n2cnc3ccc(-c4ccncc4)cc32)sc1C(N)=O)c1ccccc1Cl` [GSK483724A]: 7.04. Turning to `CS(=O)(=O)CCNCc1ccc(-c2ccc3ncnc(Nc4ccc(OCc5cccc(F)c5)c(C(F)(F)F)c4)c3c2)o1` [GW576484X], the “continuous enzyme-coupled kinase assay on lipid vesicles, percent inhibition” value on LET-23 was “The ATOP and 4AQ scaffold compounds tested were able to inhibit LET-23 kinase activity”. On to `[O-][S+]1CCN(Cc2ccc(-c3ccc4ncnc(Nc5ccc(OCc6ccccc6)c(Cl)c5)c4c3)o2)CC1` [GW583373A], for which the “continuous enzyme-coupled kinase assay on lipid vesicles, percent inhibition” value on LET-23 was “The ATOP and 4AQ scaffold compounds tested were able to inhibit LET-23 kinase activity”.
